Laboratory results taken from ChEMBL document CHEMBL1127581, “Evolution of a novel series of [(N,N-dimethylamino)propyl]- and piperazinylbenzanilides as the first selective 5-HT1D antagonists” (J Med Chem, 1994).

Columns and labels:
[1] = organism: Oryctolagus cuniculus; assay: Tested for its ability to block 5-HT2A induced contractile responses in rabbit isolated aorta; assay type: functional
[2] = organism: Canis familiaris; assay: Tested in vitro for its ability to block 5-HT induced contractile responses in dog isolated saphenous vein; assay type: functional, Canis lupus familiaris
[3] = biological target: 5-hydroxytryptamine receptor 1D (Cavia porcellus, UniProt Q60484); assay: In vitro binding affinity towards 5-hydroxytryptamine 1D receptor in guinea-pig striatum in presence of BMY-7378 and mesulergine; assay type: tissue-based
[4] = organism: Oryctolagus cuniculus; assay: Tested in vitro for its ability to block 5-HT2A induced contraction of rabbit isolated aorta; assay type: functional
[5] = biological target: 5-hydroxytryptamine receptor 1B (Rattus norvegicus, UniProt P28564); assay: In vitro binding affinity towards 5-hydroxytryptamine 1B receptor in rat striatal membrane with [125I]- iodocyanopindolol; assay type: cell membranes, Striatum
[6] = biological target: T1, 5-hydroxytryptamine receptor 1A (Rattus norvegicus, UniProt P19327); assay: Binding affinity towards 5-hydroxytryptamine 1A receptor in rat hippocampus using [3H]8-OH-DPAT; assay type: tissue-based
T1 sequence (P19327 whole entry): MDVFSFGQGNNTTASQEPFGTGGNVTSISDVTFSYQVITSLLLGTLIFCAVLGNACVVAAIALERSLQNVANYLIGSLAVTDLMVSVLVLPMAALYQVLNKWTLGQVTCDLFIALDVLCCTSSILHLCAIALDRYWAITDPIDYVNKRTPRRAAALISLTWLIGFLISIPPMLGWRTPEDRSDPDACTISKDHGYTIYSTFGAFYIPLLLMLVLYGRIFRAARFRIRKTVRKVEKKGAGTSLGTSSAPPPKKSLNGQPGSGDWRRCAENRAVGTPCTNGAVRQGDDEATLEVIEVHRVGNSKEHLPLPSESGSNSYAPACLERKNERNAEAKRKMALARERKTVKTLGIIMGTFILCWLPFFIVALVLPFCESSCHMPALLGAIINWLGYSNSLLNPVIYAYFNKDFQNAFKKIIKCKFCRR

[7] = biological target: 5-hydroxytryptamine receptor 1D (Cavia porcellus) (UniProt Q60484); assay: Oral effective dose against hypothermia in the guinea pig caused by stimulation of central 5-hydroxytryptamine 1D receptors by the agonist GR-46611;range is 0.2-1.2; assay type: functional
[8] = biological target: 5-hydroxytryptamine receptor 1D (Cavia porcellus) (UniProt Q60484); assay: Oral effective dose against hypothermia in the guinea pig caused by stimulation of central 5-hydroxytryptamine 1D receptor by the agonist GR-46611; assay type: functional
[9] = biological target: 5-hydroxytryptamine receptor 1D (Cavia porcellus) (UniProt Q60484); assay: Compound at 50 mg/kg was tested for the inhibition of hypothermia in the guinea pig caused by stimulation of central 5-hydroxytryptamine 1D receptors by the agonist GR-46611; assay type: functional, organism-based; design: dose 50 mg/kg
[10] = biological target: 5-hydroxytryptamine receptor 1D (Cavia porcellus) (UniProt Q60484); assay: Compound at oral dose of 45 mg/kg was tested for percent inhibition against 5-hydroxytryptamine 1D receptor causes hypothermia in guinea pig; assay type: functional, organism-based; design: dose 45 mg/kg
[11] = biological target: 5-hydroxytryptamine receptor 1D (Cavia porcellus) (UniProt Q60484); assay: Oral effective dose against hypothermia in the guinea pig caused by stimulation of central 5-hydroxytryptamine 1D receptors by the agonist GR-46611; assay type: functional
[12] = biological target: 5-hydroxytryptamine receptor 1D (Cavia porcellus) (UniProt Q60484); assay: Compound at 45 mg/kg was tested for the inhibition of hypothermia in the guinea pig caused by stimulation of central 5-hydroxytryptamine 1D receptors by the agonist GR-46611; assay type: functional, organism-based; design: dose 45 mg/kg
[13] = biological target: 5-hydroxytryptamine receptor 1D (Cavia porcellus) (UniProt Q60484); assay: Compound at 3 mg/kg was tested for the inhibition of hypothermia in the guinea pig caused by stimulation of central 5-hydroxytryptamine 1D receptors by the agonist GR-46611; assay type: functional, organism-based; design: dose 3 mg/kg
[14] = biological target: 5-hydroxytryptamine receptor 1D (Cavia porcellus) (UniProt Q60484); assay: Oral effective dose against hypothermia in the guinea pig caused by stimulation of central 5-hydroxytryptamine 1D receptors by the agonist GR-46611; range is 2-9; assay type: functional
[15] = biological target: T1, 5-hydroxytryptamine receptor 1A; assay: Binding affinity towards 5-hydroxytryptamine 1A receptor in rat hippocampus with [3H]8-OH-DPAT; assay type: tissue-based

Chain of 5-hydroxytryptamine receptor 1D (Q60484 whole entry): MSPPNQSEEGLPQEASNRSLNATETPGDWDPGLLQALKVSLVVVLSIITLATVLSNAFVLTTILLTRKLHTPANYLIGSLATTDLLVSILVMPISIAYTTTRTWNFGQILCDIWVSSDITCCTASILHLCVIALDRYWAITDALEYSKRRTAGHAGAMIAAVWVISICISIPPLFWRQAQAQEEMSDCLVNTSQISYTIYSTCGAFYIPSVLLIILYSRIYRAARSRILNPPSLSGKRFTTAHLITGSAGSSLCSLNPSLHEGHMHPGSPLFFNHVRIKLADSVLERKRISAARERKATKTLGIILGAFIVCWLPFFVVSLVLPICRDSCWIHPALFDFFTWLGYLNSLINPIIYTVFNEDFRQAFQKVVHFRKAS
Chain of 5-hydroxytryptamine receptor 1D (Cavia porcellus) (Q60484 whole entry): as above
Chain of 5-hydroxytryptamine receptor 1B (P28564 whole entry): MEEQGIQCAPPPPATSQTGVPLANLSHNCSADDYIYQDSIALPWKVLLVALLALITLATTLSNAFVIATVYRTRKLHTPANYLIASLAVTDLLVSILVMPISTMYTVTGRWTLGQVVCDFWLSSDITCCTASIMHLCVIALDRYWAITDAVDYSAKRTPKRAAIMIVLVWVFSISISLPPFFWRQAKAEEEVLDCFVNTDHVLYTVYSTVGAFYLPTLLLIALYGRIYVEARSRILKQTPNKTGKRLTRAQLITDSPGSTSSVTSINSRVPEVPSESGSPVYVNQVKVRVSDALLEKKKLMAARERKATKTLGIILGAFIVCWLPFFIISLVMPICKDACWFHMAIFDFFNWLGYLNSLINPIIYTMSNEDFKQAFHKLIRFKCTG

Row | Ki [3] | Ki [6] | ED50 [11] | SMILES | pKB [1] | pKB [2] | pKB [4] | also measured
1 | – | – | – | CCOc1ccc(NC(=O)c2ccc(OC)c(CCCN(C)C)c2)cc1 | 6.2 | 6.9 | – | –
2 | 6.31 nM | 1260 nM | – | COc1ccc(C(=O)Nc2ccc(-c3ccc(-c4noc(C)n4)cc3C)cc2)cc1N1CCN(C)CC1 | – | 8.2 | 7.8 | Ki [5]: 6.31 nM; ED50 [7]: 0.5 mg/kg
3 | 5.01 nM | 251 nM | – | COc1ccc(NC(=O)c2ccc(-c3ccc(C(=O)N(C)C)cc3C)cc2)cc1N1CCN(C)CC1 | – | 9.2 | 4.9 | Ki [5]: 6.31 nM; ED50 [8]: 0.67 mg/kg
4 | 10 nM | 20000 nM | – | COc1ccc(C(=O)Nc2ccc(-c3ccncc3)cc2)cc1CCCN(C)C | 6.3 | 7.8 | – | inhibition [9]: < 30%
5 | 6.31 nM | 5010 nM | 45 mg/kg | COc1ccc(C(=O)Nc2ccc(-c3ccc(C=O)cc3C)cc2)cc1CCCN(C)C | 6.3 | 8.4 | – | inhibition [10]: < 30%
6 | – | – | 45 mg/kg | COc1ccc(C(=O)Nc2ccc(-c3ccc(CO)cc3C)cc2)cc1CCCN(C)C | 5.9 | 8.5 | – | inhibition [12]: 52%
7 | 3.16 nM | – | 45 mg/kg | COCCOC(=O)c1ccc(-c2ccc(NC(=O)c3ccc(OC)c(CCCN(C)C)c3)cc2)c(C)c1 | 6.2 | 8.4 | – | inhibition [12]: 55%; inhibition [13]: 66%
8 | 5.01 nM | – | – | COc1ccc(NC(=O)c2ccc(-c3ccncc3)cc2)cc1N1CCN(C)CC1 | – | 8 | 6.5 | ED50 [14]: 5 mg/kg; Ki [15]: 1260 nM
9 | 3.16 nM | – | > 45 mg/kg | COc1ccc(C(=O)Nc2ccc(-c3ccncc3)cc2)cc1N1CCN(C)CC1 | – | 7.9 | 6.5 | –

Row | SMILES | Ki [3] | Ki [6] | ED50 [11] | pKB [1] | pKB [2] | pKB [4] | also measured
10 | COc1ccc(C(=O)Nc2ccc(-c3ccc(C(=O)O)cc3C)cc2)cc1CCCN(C)C | 31.6 nM | > 10000 nM | – | 5.7 | 8.7 | – | –
